Series [1] has as its system Human Pancreatic carcinoma cells (MIA-PaCa-2). Put plainly: MIA-PaCa-2 xenograft tumor growth in mice, SGRM combined with paclitaxel. It counts as in vivo, mice (Balbc/c nude). The conditions noted are these: SGRM 30 mg/kg orally on day prior to and same day as paclitaxel 7.5 mg/kg intravenously Q4D; MIA-PaCa-2 subcutaneous tumors. As for the experimental part:
Human Pancreatic carcinoma cells (MIA-PaCa-2) were purchased from the American Type Cell Collection (ATCC). The cells were grown in Dulbecco's Modified Eagle's Medium (DMEM) containing 10% (v/v) heat inactivated fetal calf serum and 2.5% horse serum at 37° C. Suspensions of the cells were injected subcutaneously into the left flank of 5-6 week old immunocompromised female mice (Balbc/c nude), 3 million cells per mouse. Tumors were allowed to grow until they reach a volume of 100-200 cubic millimeters (mm^3). Mice were then grouped into four groups, ten (10) per group, and treated with compounds or vehicle as follows. Vehicle or paclitaxel was administered intravenously and SGRMs, i.e., CORT25134 and CORT125281, were administered orally. SGRMs were administered in vehicle ((10% dimethyl sulfoxide (DMSO), 0.1% Tween 80 (polyethylene glycol sorbitan monooleate (polysorbate 80)) and 89.9% hydroxypropyl methylcellulose (HPMC) (0.5%)). Group 1 was dosed with the compound vehicle (10% DMSO, 0.1% Tween 80 and 89.9% HPMC (0.5%)) daily. Group 2 was dosed with paclitaxel at 7.5 mg/kg, every four days (“Q4D”). Group 3 was dosed with both paclitaxel at 7.5 mg/kg Q4D and CORT125134 at 30 mg/kg on the day prior to and the same day as the day paclitaxel was administered. Group 4 was dosed with both paclitaxel at 7.5 mg/kg Q4D and CORT125281 at 30 mg/kg on the day prior to and the same day as the day paclitaxel was administered.
The longest (L) and shortest (S) diameters of the tumors were measured three times a week with electronic calipers and tumor volume was calculated using the formula […], where a and b are the long and short diameters of the tumor, respectively. The tumor growth data are shown in The FIGURE, in which the mean tumor volume as compared to the mean pre-dosing tumor volume for each group of mice is plotted against the number of days of tumor growth since initiation of the treatment.

The subject of series [2] is exocrine pancreatic tumor. Nature of the series: Treating a patient having pancreatic cancer with SGRM and nab-paclitaxel (Example 3, hypothetical). It counts as in vivo, human. The conditions noted are these: 200 mg once a day for eight weeks with nab-paclitaxel 80 mg per square meter on days 1, 8, 15 of 28-day cycle; end of the treatment period. The protocol: A typical pancreatic patient may complain of upper abdomen pain that typically radiates to the back. Such a patient may experience loss of appetite, nausea and vomiting episodes, and may suffer significant weight loss. A CT scan may show the presence of a tumor in the pancreas. The presence of an exocrine pancreatic tumor may be confirmed by histological analysis. Blood ACTH level may be within the normal range for ACTH. Such a patient may be treated with CORT125134 at a dose of 200 mg once a day for eight weeks in combination with an intravenous infusion of nab-paclitaxel at a dose of 80 mg per square meter of body-surface area as an intravenous infusion over 30 minutes on days 1, 8, and 15 of every 28-day cycle. Tumor load may be monitored using enhanced MRI before, during and after such treatment. Imaging results may indicate that the size of the tumor gradually decreases; such reduction may be more than 50% at the end of the treatment period.

For series [3], the system named is metastatic adenocarcinoma of the pancreas. Nature of the series: Clinical study of CORT125134 with nab-paclitaxel in a patient with advanced pancreatic cancer (Example 4). Format: in vivo, human. The protocol:
A patient with a diagnosis of metastatic adenocarcinoma of the pancreas participated in a clinical study evaluating the efficacy of daily administration of 100 mg of the GR antagonist CORT125134 in combination with nab-paclitaxel infusions weekly for three out of four weeks per cycle. A tumor tissue sample obtained during or prior to the patient's previous treatments was found by immunohistochemistry to have high GR expression, with 90 percent of the cells staining for GR and with a large percentage staining with high intensity. Prior to receiving this combined GR antagonist and nab-paclitaxel treatment, the patient had previously received treatment with multiple lines of chemotherapy: gemcitabine monotherapy; eight months of combination chemotherapy treatment with 5-fluorouracil, leucovorin, irinotecan and oxaliplatin (FOLFIRINOX treatment); five months of treatment with gemcitabine combined with nab-paclitaxel; and four months of combination chemotherapy treatment with 5-fluorouracil, leucovorin, and irinotecan hydrochloride (FOLFIRI treatment). These prior treatments were unsuccessful: the patient's cancer progressed despite these prior chemotherapy treatments.
This patient has so far received 8 months (8 cycles) of the combined treatment of daily 100 mg CORT125134 in combination with nab-paclitaxel infusions weekly for three out of four weeks per cycle. […] When scanned again one month later, the tumor volume was still reduced by approximately 40% compared to baseline volume, thus confirming the PR status. […] The patient remains on the treatment, and continues to tolerate the treatment well.

Here are results for 2 molecules from patent publication US12370175B2, “Glucocorticoid receptor modulators to treat pancreatic cancer” (Corcept Therapeutics, Inc., priority 2016, dated 2025).

Structures are written as SMILES. Entries after “also recorded” stand apart in the source; their conditions may differ.

Consider `Cn1cc(S(=O)(=O)N2CCC3=Cc4c(cnn4-c4ccc(F)cc4)C[C@]3(C(=O)c3cc(C(F)(F)F)ccn3)C2)cn1` [CORT125134, (R)-(1-(4-fluorophenyl)-6-((1-methyl-1H-pyrazol-4-yl)sulfonyl)-4,4a,5,6,7,8-hexahydro-1H-pyrazolo[3,4-g]isoquinolin-4a-yl)(4-(trifluoromethyl)pyridin-2-yl)methanone], for which, in series [1], the “tumor growth (mean tumor volume compared to mean pre-dosing tumor volume), combination versus paclitaxel group” value is “superior to the paclitaxel group in reducing tumor growth” and the “tumor growth reduction, comparison among treatment groups” value is listed as “most significant tumor growth reduction”. Besides, the “reduction of the size of the tumor (enhanced MRI)” value in series [2] is recorded as “more than 50%”. Further, in series [3] (daily 100 mg CORT125134 with nab-paclitaxel infusions weekly three out of four weeks per cycle, 8 months (8 cycles), one patient), the clinical response entry is reported as “partial response (PR); also recorded: sustained partial response”. In addition, the “tolerability of the treatment” value in series [3] (daily 100 mg CORT125134 with nab-paclitaxel infusions, 8 months, one patient) is “tolerated the treatment reasonably well; also recorded: tolerated the treatment with CORT125134 and nab-paclitaxel well”. Further, the “tumor volume reduction compared to baseline volume (CT scans)” value in series [3] (scanned again one month after the third month, daily 100 mg CORT125134 with nab-paclitaxel) is recorded as “approximately 40%”. Moreover, the “tumor volume reduction compared to baseline (scan)” value in series [3] (seventh month of treatment, daily 100 mg CORT125134 with nab-paclitaxel, one patient) was 40%. In addition, the “tumor volume reduction compared to start of study (CT scans)” value in series [3] (third month/cycle of treatment, daily 100 mg CORT125134 with nab-paclitaxel, one patient) was “approximately 40%”.

`Cn1ncc(S(=O)(=O)N2CC[C@H]3Cc4c(cnn4-c4ccc(F)cc4)C[C@]3(C(=O)c3cc(C(F)(F)F)ccn3)C2)n1` [CORT125281, ((4aR,8aS)-1-(4-fluorophenyl)-6-((2-methyl-2H-1,2,3-triazol-4-yl)sulfonyl)-4,4a,5,6,7,8,8a,9-octahydro-1H-pyrazolo[3,4-g]isoquinolin-4a-yl)(4-(trifluoromethyl)pyridin-2-yl)methanone]: the “tumor growth (mean tumor volume compared to mean pre-dosing tumor volume), combination versus paclitaxel group” value in series [1] was “superior to the paclitaxel group in reducing tumor growth”.
